Numbers after ± are expanded uncertainties.
Experiment: activity coefficient (dimensionless); of the first substance listed, at infinite dilution; xn = mol fraction of the nth substance listed
Conditions: 338.15 K; 101.33 kPa; Liquid; Chromatography; x1 = 0

| SMILES | activity coefficient |
| --- | --- |
| Cc1ccccc1C [1,2-dimethylbenzene] + CCCCCCCCCCCC[N+](C)(C)CCOc1ccccc1.N#C[N-]C#N | 1.28 ± 0.08 |
| Cc1ccccc1C [1,2-dimethylbenzene] + CCCCCCCCCCCC[N+](C)(C)CCOc1ccccc1.O=S(=O)([N-]S(=O)(=O)C(F)(F)F)C(F)(F)F | 0.874 ± 0.056 |
| Cc1cccc(C)c1 [1,3-dimethylbenzene] + CCCCCCCCCCCC[N+](C)(C)CCOc1ccccc1.N#C[N-]C#N | 1.44 ± 0.09 |
| Cc1cccc(C)c1 [1,3-dimethylbenzene] + CCCCCCCCCCCC[N+](C)(C)CCOc1ccccc1.O=S(=O)([N-]S(=O)(=O)C(F)(F)F)C(F)(F)F | 0.957 ± 0.06 |
| Cc1ccc(C)cc1 [1,4-dimethylbenzene] + CCCCCCCCCCCC[N+](C)(C)CCOc1ccccc1.N#C[N-]C#N | 1.44 ± 0.09 |
| Cc1ccc(C)cc1 [1,4-dimethylbenzene] + CCCCCCCCCCCC[N+](C)(C)CCOc1ccccc1.O=S(=O)([N-]S(=O)(=O)C(F)(F)F)C(F)(F)F | 0.967 ± 0.061 |
| C1COCCO1 [1,4-dioxane] + CCCCCCCCCCCC[N+](C)(C)CCOc1ccccc1.N#C[N-]C#N | 0.79 ± 0.051 |
| C1COCCO1 [1,4-dioxane] + CCCCCCCCCCCC[N+](C)(C)CCOc1ccccc1.O=S(=O)([N-]S(=O)(=O)C(F)(F)F)C(F)(F)F | 0.517 ± 0.039 |
| C=CCCCCCCCC [1-decene] + CCCCCCCCCCCC[N+](C)(C)CCOc1ccccc1.N#C[N-]C#N | 6.67 ± 0.45 |
| C=CCCCCCCCC [1-decene] + CCCCCCCCCCCC[N+](C)(C)CCOc1ccccc1.O=S(=O)([N-]S(=O)(=O)C(F)(F)F)C(F)(F)F | 4.27 ± 0.29 |
| C=CCCCCC [1-heptene] + CCCCCCCCCCCC[N+](C)(C)CCOc1ccccc1.N#C[N-]C#N | 4.28 ± 0.29 |
| C=CCCCCC [1-heptene] + CCCCCCCCCCCC[N+](C)(C)CCOc1ccccc1.O=S(=O)([N-]S(=O)(=O)C(F)(F)F)C(F)(F)F | 2.67 ± 0.18 |
| C#CCCCCC [1-heptyne] + CCCCCCCCCCCC[N+](C)(C)CCOc1ccccc1.N#C[N-]C#N | 2.03 ± 0.14 |
| C#CCCCCC [1-heptyne] + CCCCCCCCCCCC[N+](C)(C)CCOc1ccccc1.O=S(=O)([N-]S(=O)(=O)C(F)(F)F)C(F)(F)F | 1.61 ± 0.11 |
| C#CCCCC [1-hexyne] + CCCCCCCCCCCC[N+](C)(C)CCOc1ccccc1.N#C[N-]C#N | 1.74 ± 0.12 |
| C#CCCCC [1-hexyne] + CCCCCCCCCCCC[N+](C)(C)CCOc1ccccc1.O=S(=O)([N-]S(=O)(=O)C(F)(F)F)C(F)(F)F | 1.39 ± 0.09 |
| CCC[N+](=O)[O-] [1-nitropropane] + CCCCCCCCCCCC[N+](C)(C)CCOc1ccccc1.N#C[N-]C#N | 0.85 ± 0.055 |
| CCC[N+](=O)[O-] [1-nitropropane] + CCCCCCCCCCCC[N+](C)(C)CCOc1ccccc1.O=S(=O)([N-]S(=O)(=O)C(F)(F)F)C(F)(F)F | 0.77 ± 0.05 |
| C#CCCCCCC [1-octyne] + CCCCCCCCCCCC[N+](C)(C)CCOc1ccccc1.N#C[N-]C#N | 2.34 ± 0.16 |
| C#CCCCCCC [1-octyne] + CCCCCCCCCCCC[N+](C)(C)CCOc1ccccc1.O=S(=O)([N-]S(=O)(=O)C(F)(F)F)C(F)(F)F | 1.86 ± 0.13 |
| C=CCCC [1-pentene] + CCCCCCCCCCCC[N+](C)(C)CCOc1ccccc1.N#C[N-]C#N | 3.36 ± 0.23 |
| C=CCCC [1-pentene] + CCCCCCCCCCCC[N+](C)(C)CCOc1ccccc1.O=S(=O)([N-]S(=O)(=O)C(F)(F)F)C(F)(F)F | 1.93 ± 0.13 |
| C#CCCC [1-pentyne] + CCCCCCCCCCCC[N+](C)(C)CCOc1ccccc1.N#C[N-]C#N | 1.53 ± 0.1 |
| C#CCCC [1-pentyne] + CCCCCCCCCCCC[N+](C)(C)CCOc1ccccc1.O=S(=O)([N-]S(=O)(=O)C(F)(F)F)C(F)(F)F | 1.19 ± 0.08 |
| CC(C)CC(C)(C)C [2,2,4-trimethylpentane] + CCCCCCCCCCCC[N+](C)(C)CCOc1ccccc1.N#C[N-]C#N | 7.15 ± 0.49 |
| CC(C)CC(C)(C)C [2,2,4-trimethylpentane] + CCCCCCCCCCCC[N+](C)(C)CCOc1ccccc1.O=S(=O)([N-]S(=O)(=O)C(F)(F)F)C(F)(F)F | 3.77 ± 0.26 |
| CCC(C)(C)C [2,2-dimethylbutane] + CCCCCCCCCCCC[N+](C)(C)CCOc1ccccc1.N#C[N-]C#N | 5.95 ± 0.41 |
| CCC(C)(C)C [2,2-dimethylbutane] + CCCCCCCCCCCC[N+](C)(C)CCOc1ccccc1.O=S(=O)([N-]S(=O)(=O)C(F)(F)F)C(F)(F)F | 2.99 ± 0.2 |
| CCOC(C)(C)C [2-ethoxy-2-methylpropane] + CCCCCCCCCCCC[N+](C)(C)CCOc1ccccc1.N#C[N-]C#N | 3.74 ± 0.25 |
| CCOC(C)(C)C [2-ethoxy-2-methylpropane] + CCCCCCCCCCCC[N+](C)(C)CCOc1ccccc1.O=S(=O)([N-]S(=O)(=O)C(F)(F)F)C(F)(F)F | 1.94 ± 0.13 |

Same assay, conditions: 348.15 K; 101.33 kPa; Liquid; Chromatography; x1 = 0

| SMILES | activity coefficient |
| --- | --- |
| Cc1ccccc1C [1,2-dimethylbenzene] + CCCCCCCCCCCC[N+](C)(C)CCOc1ccccc1.N#C[N-]C#N | 1.32 ± 0.09 |
| Cc1ccccc1C [1,2-dimethylbenzene] + CCCCCCCCCCCC[N+](C)(C)CCOc1ccccc1.O=S(=O)([N-]S(=O)(=O)C(F)(F)F)C(F)(F)F | 0.922 ± 0.058 |
| Cc1cccc(C)c1 [1,3-dimethylbenzene] + CCCCCCCCCCCC[N+](C)(C)CCOc1ccccc1.N#C[N-]C#N | 1.5 ± 0.1 |
| Cc1cccc(C)c1 [1,3-dimethylbenzene] + CCCCCCCCCCCC[N+](C)(C)CCOc1ccccc1.O=S(=O)([N-]S(=O)(=O)C(F)(F)F)C(F)(F)F | 1.01 ± 0.06 |
| Cc1ccc(C)cc1 [1,4-dimethylbenzene] + CCCCCCCCCCCC[N+](C)(C)CCOc1ccccc1.N#C[N-]C#N | 1.5 ± 0.1 |
| Cc1ccc(C)cc1 [1,4-dimethylbenzene] + CCCCCCCCCCCC[N+](C)(C)CCOc1ccccc1.O=S(=O)([N-]S(=O)(=O)C(F)(F)F)C(F)(F)F | 1.02 ± 0.06 |
| C1COCCO1 [1,4-dioxane] + CCCCCCCCCCCC[N+](C)(C)CCOc1ccccc1.N#C[N-]C#N | 0.818 ± 0.053 |
| C1COCCO1 [1,4-dioxane] + CCCCCCCCCCCC[N+](C)(C)CCOc1ccccc1.O=S(=O)([N-]S(=O)(=O)C(F)(F)F)C(F)(F)F | 0.551 ± 0.04 |
| C=CCCCCCCCC [1-decene] + CCCCCCCCCCCC[N+](C)(C)CCOc1ccccc1.N#C[N-]C#N | 6.83 ± 0.47 |
| C=CCCCCCCCC [1-decene] + CCCCCCCCCCCC[N+](C)(C)CCOc1ccccc1.O=S(=O)([N-]S(=O)(=O)C(F)(F)F)C(F)(F)F | 4.4 ± 0.3 |
| C=CCCCCC [1-heptene] + CCCCCCCCCCCC[N+](C)(C)CCOc1ccccc1.N#C[N-]C#N | 4.36 ± 0.3 |
| C=CCCCCC [1-heptene] + CCCCCCCCCCCC[N+](C)(C)CCOc1ccccc1.O=S(=O)([N-]S(=O)(=O)C(F)(F)F)C(F)(F)F | 2.76 ± 0.19 |
| C#CCCCCC [1-heptyne] + CCCCCCCCCCCC[N+](C)(C)CCOc1ccccc1.N#C[N-]C#N | 2.12 ± 0.14 |
| C#CCCCCC [1-heptyne] + CCCCCCCCCCCC[N+](C)(C)CCOc1ccccc1.O=S(=O)([N-]S(=O)(=O)C(F)(F)F)C(F)(F)F | 1.68 ± 0.11 |
| C#CCCCC [1-hexyne] + CCCCCCCCCCCC[N+](C)(C)CCOc1ccccc1.N#C[N-]C#N | 1.82 ± 0.12 |

Source: the NIST ThermoML archive (doi:10.1016/j.fluid.2018.09.024)
